Measurements from ChEMBL document CHEMBL4390694, “Benzofuran-isatin hybrids tethered via different length alkyl linkers and their in vitro anti-mycobacterial activities” (Bioorg Med Chem, 2019).
Values after ≈ are worked out from the molar mass of the structure shown.

Legend:
[1] = Selectivity index, ratio of CC50 for cytotoxicity against African green monkey Vero cells to MIC for antimycobacterial activity against drug-susceptible Mycobacterium tuberculosis H37Rv; type: toxicity, cell-based; details: read-out: Selectivity Index
[2] = system: Mycobacterium tuberculosis; experiment: Antimycobacterial activity against drug-susceptible Mycobacterium tuberculosis H37Rv assessed as complete inhibition of bacterial growth incubated for 7 days by rapid direct susceptibility test; type: functional; details: 168 h
[3] = Cytotoxicity against African green monkey Vero cells assessed as decrease in cell viability after 72 hrs by MTT assay; type: cell-based; details: chlorocebus sabaeus
[4] = Elimination half life in ICR mouse at 25 mg/kg, po administered as single dose and measured up to 24 hrs post dose; type: ADME, organism-based; details: in vivo, read-out: beta t1/2 (converted)
[5] = Metabolic stability in mouse liver microsomes assessed as half life; type: ADME, Microsome
[6] = Cmax in ICR mouse at 25 mg/kg, po administered as single dose and measured up to 24 hrs post dose; type: ADME, organism-based; set-up: dose 25 mg/kg, route oral; details: in vivo
[7] = AUC (0 to infinity) in ICR mouse at 25 mg/kg, po administered as single dose and measured up to 24 hrs post dose; type: ADME, organism-based; set-up: dose 25 mg/kg, time infinity, route oral; details: in vivo
[8] = Tmax in ICR mouse at 25 mg/kg, po administered as single dose and measured up to 24 hrs post dose; type: ADME, organism-based; details: in vivo

Row | Compound | selectivity ratio [1] | MIC [2] | CC50 at 72 h [3] | half-life [4] | half-life [5] | Cmax [6] | AUC(0-inf) [7] | Tmax [8]
1 | CCOC(=O)c1c(-c2ccc(F)cc2)oc2ccc(OCCCCCCN3C(=O)C(=O)c4cc(F)ccc43)cc12 | 2048 | 0.25 µg/mL (≈ 0.457 µM) | 512 µM | – | – | – | – | –
2 | CNC(=O)c1c(-c2ccc(O)cc2)oc2ccc(O)c(CN3CCCCC3)c12 | > 16400 | < 0.06 µg/mL | > 1020 µM | 8.59 h | > 1 h | 6830 ng/mL | 31800 ng·h/mL | 3.12 h
3 | CCOC(=O)c1c(-c2ccc(OC)cc2)oc2ccc(OCCCCCN3C(=O)C(=O)c4cc(F)ccc43)cc12 | 512 | 0.25 µg/mL (≈ 0.458 µM) | 128 µM | – | – | – | – | –
4 | CCOC(=O)c1c(-c2ccc(F)cc2)oc2ccc(OCCCCCN3C(=O)C(=O)c4cc(OC)ccc43)cc12 | 256 | 0.5 µg/mL (≈ 0.916 µM) | 128 µM | – | – | – | – | –
5 | CCOC(=O)c1c(-c2ccccc2)oc2ccc(OCCCN3C(=O)C(=O)c4cc(OC)ccc43)cc12 | 1024 | 0.25 µg/mL (≈ 0.5 µM) | 256 µM | – | – | – | – | –
6 | CCOC(=O)c1c(-c2ccc(OC)cc2)oc2ccc(OCCCN3C(=O)C(=O)c4cc(F)ccc43)cc12 | 512 | 0.5 µg/mL (≈ 0.966 µM) | 256 µM | – | – | – | – | –
7 | CCOC(=O)c1c(-c2ccc(OC)cc2)oc2ccc(OCCCN3C(=O)C(=O)c4ccccc43)cc12 | 64 | 1 µg/mL (≈ 2 µM) | 64 µM | – | – | – | – | –
8 | CCOC(=O)c1c(-c2ccc(F)cc2)oc2ccc(OCCCN3C(=O)C(=O)c4ccccc43)cc12 | 128 | 2 µg/mL (≈ 4.1 µM) | 256 µM | – | – | – | – | –
9 | CCOC(=O)c1c(-c2ccc(OC)cc2)oc2ccc(OCCCCN3C(=O)C(=O)c4cc(OC)ccc43)cc12 | 32 | 2 µg/mL (≈ 3.68 µM) | 64 µM | – | – | – | – | –
10 | CCOC(=O)c1c(-c2ccc(OC)cc2)oc2ccc(OCCCCCCN3C(=O)C(=O)c4ccccc43)cc12 | 1024 | 0.25 µg/mL (≈ 0.462 µM) | 256 µM | – | – | – | – | –
11 | CCOC(=O)c1c(-c2ccc(OC)cc2)oc2ccc(OCCCCCCN3C(=O)C(=O)c4cc(F)ccc43)cc12 | 1024 | 0.125 µg/mL (≈ 0.223 µM) | 128 µM | 2.48 h | 0.527 h | 1220 ng/mL | 3680 ng·h/mL | 1.76 h
12 | CCOC(=O)c1c(-c2ccc(OC)cc2)oc2ccc(OCCCCN3C(=O)C(=O)c4ccccc43)cc12 | > 2048 | 0.5 µg/mL (≈ 0.974 µM) | > 1020 µM | – | – | – | – | –
13 | CCOC(=O)c1c(-c2ccc(F)cc2)oc2ccc(OCCCN3C(=O)C(=O)c4cc(F)ccc43)cc12 | 512 | 1 µg/mL (≈ 1.98 µM) | 512 µM | – | – | – | – | –
14 | CCOC(=O)c1c(-c2ccc(F)cc2)oc2ccc(OCCCN3C(=O)C(=O)c4cc(OC)ccc43)cc12 | 128 | 1 µg/mL (≈ 1.93 µM) | 128 µM | – | – | – | – | –
15 | NNC(=O)c1ccncc1 [ISONIAZID] | – | 0.06 µg/mL (≈ 0.438 µM) | – | – | – | – | – | –
16 | CO[C@H]1/C=C/O[C@@]2(C)Oc3c(C)c(O)c4c(O)c(c(/C=N/N5CCN(C)CC5)c(O)c4c3C2=O)NC(=O)/C(C)=C\C=C\[C@H](C)[C@H](O)[C@@H](C)[C@@H](O)[C@@H](C)[C@H](OC(C)=O)[C@@H]1C [RIFAMPIN] | – | 0.5 µg/mL (≈ 0.608 µM) | – | – | – | – | – | –
